{
  "source": "patent EP0475413B1",
  "about": "“Carbocyclic nucleoside analogs useful as immunosuppressants” (HOECHST MARION ROUSSEL, INC., priority 1990, dated 1992)",
  "key": {"[1]": {"system": "Rat peritoneal macrophages", "assay": "Inhibition of priming of rat peritoneal macrophages, Superoxide Anion (O2-) assay", "assay_type": "cell-based", "conditions": "Peritoneal macrophage, opsonized zymosan (3 mg/mL) as stimulus, rrIFN-γ (1000Units/mL), compound 0 to 1000µM, superoxide anion readout, read-out: IC₅₀ (inhibits the priming of rat macrophages in vitro)", "experimental": "Rat peritoneal macrophages were isolated and grown in cell culture essentially as described by Edwards et al. [Science 239, 769 (1988)]. Macrophages were incubated along with opsonized zymosan (3 mg/mL), which acts as a particulate stimulus, and recombinant rat γ-interferon (rrIFN-γ)(1000Units/mL), which acts as an activating lymphokine, in the presence of various concentrations of (1R,3S)-Cis-1-(9-adenyl)-3-hydroxy-4-cyclopentene (0 to 1000µM). The degree of macrophage priming was measured using the Superoxide Anion (O₂⁻) assay as described by Edwards et al. [Science 239, 769 (1988)]."}, "rat PMNs": {"system": "rat PMNs", "assay": "Inhibition of rrIFN-γ priming of rat PMN, Superoxide Anion (O2-) assay", "assay_type": "cell-based", "conditions": "PMNs from rat air pouch elicited with rHuIL-1 (25ng/pouch); PMA (200ng/mL) as stimulus, rrIFN-γ (1000 Units/mL); compound 0 to 1000µM; superoxide anion readout; read-out: IC₅₀ (inhibits the rrIFN-γ priming of rat PMN in vitro)", "experimental": "The rat air pouch model of inflammation was used to obtain rat PMNs using 25ng/pouch of recombinant human interleukin-1 (rHuIL-1) to elicit the cells essentially according to the method of Esser et al. [Internat. J. Tissue Reactions XI, 291 (1989)]. PMNs were incubated along with phorbol myristate acetate (PMA) (200ng/mL), which acts as a soluble stimulus, and rrIFN-γ (1000 Units/mL), which act as a stimulatory lymphokine, in the presence of various concentrations of (1R,3S)-Cis-1-(9-adenyl)-3-hydroxy-4-cyclopentene (0 to 1000µM). The degree of macrophage priming was measured using the Superoxide Anion (O₂⁻) assay as described by Edwards et al. [Science 239, 769 (1988)]."}},
  "note": "Where a name gives a salt, the structure may show the parent alone.",
  "data": [
    {"smiles": "Nc1ncnc2c1ncn2[C@H]1C=C[C@@H](O)C1", "note": "[Example 1, (1R,3S)-Cis-1-(9-adenyl)-3-hydroxy-4-cyclopentene hydrochloride]", "values": [
      {"measurement": "IC50", "setting": "[1]", "value": 25, "unit": "µM"},
      {"measurement": "IC50", "setting": "rat PMNs", "value": 0.015, "unit": "µM"}
    ]}
  ]
}
